The source of these data is patent publication US6458950B1, “Compounds and pharmaceutical compositions containing the same” (Shionogi & Co., Ltd., priority 1997, dated 2002).

In brackets after ≈: the same amount, converted by molar mass.

One data set relates to P.vulgaris GN-329. In words: Treating effect on infections in mouse. The conditions noted are these: Proteus vulgaris, GN329, P.vulgaris GN-329 infection. The data set is classed as in vivo.
The next data set concerns S.aureus Smith. In words: Treating effect on infections in mouse. The data set is classed as in vivo. The conditions noted are these: Staphylococcus aureus, S.aureus Smith infection.
The test system of the next data set is P.aeruginosa E-2. In words: Treating effect on infections in mouse. The conditions noted are these: Pseudomonas aeruginosa, E2, P.aeruginosa E-2 infection. The data set is classed as in vivo.
A further data set relates to S.pneumoniae Type I. In words: Treating effect on infections in mouse. It is filed as in vivo. The conditions noted are these: Streptococcus pneumoniae, S.pneumoniae Type I infection.
Data set [1] is described as follows: in vivo. The conditions noted are these: monkey.
The test system of the next data set is S. pyogenes C-203. In words: MIC by agar dilution method. It is filed as cell-based. The conditions noted are these: Streptococcus pyogenes, C203, inoculation amount 10^6 CFU/ml. On the procedure: (§1) The minimal inhibitory concentration (MIC) was determined by an agar dilution method. That is, 1.0 ml each of an aqueous solution of a test compound diluted in series was poured into a petri dish. Trypticase soy agar (9 ml) was poured into the solution, and mixed. A suspension (about 10^6 CFU/ml) of test bacteria was smeared on the mixed agar plate.
(§2) Gram-positive bacteria; S. pyogenes C-203, S. agalactiae ATCC13813, S. pneumoniae Type I, S. pneumoniae SR16675(PC-R), S. mitis ATCC9811 Gram-negative bacteria: K. pneumoniae SR1, P. mirabilis PR-4 and P. vulgaris CN-329

The next data set deals with S. mitis ATCC9811. Kind of data set: MIC by agar dilution method. The data set is classed as cell-based. The conditions noted are these: Streptococcus mitis, inoculation amount 10^6 CFU/ml. Here is the method:
as §1, §2
Background: In agar dilution, organisms are placed on agar that contains the substance at set levels.

In a further data set the test system is S. agalactiae ATCC13813. Kind of data set: MIC by agar dilution method. The data set is classed as cell-based. The conditions noted are these: Streptococcus agalactiae, inoculation amount 10^6 CFU/ml. On the procedure:
as §1, §2

In a further data set the test system is S. pneumoniae Type I. Kind of data set: MIC by agar dilution method. The data set is classed as cell-based. The conditions noted are these: Streptococcus pneumoniae, inoculation amount 10^6 CFU/ml. Here is the method:
as §1, §2

The next data set has as its system P. mirabilis PR-4. In words: MIC by agar dilution method. The data set is classed as cell-based. The conditions noted are these: Proteus mirabilis, PR4, inoculation amount 10^6 CFU/ml. On the procedure:
as §1, §2

A further data set concerns P. vulgaris CN-329. Kind of data set: MIC by agar dilution method. The data set is classed as cell-based. The conditions noted are these: Proteus vulgaris, CN329, inoculation amount 10^6 CFU/ml. On the procedure: as §1, §2
Another data set relates to K. pneumoniae SR1. In words: MIC by agar dilution method. The data set is classed as cell-based. The conditions noted are these: Klebsiella pneumoniae, K.pneumoniae R1, inoculation amount 10^6 CFU/ml. Here is the method:
as §1, §2

Data set [2] concerns S. pneumoniae SR16675(PC-R). Kind of data set: MIC by agar dilution method. The data set is classed as cell-based. The conditions noted are these: Streptococcus pneumoniae, inoculation amount 10^6 CFU/ml. Here is the method:
as §1, §2

The subject of another data set is P.aeruginosa SR24. Kind of data set: Treating effect on infections in mouse. It is filed as in vivo. The conditions noted are these: Pseudomonas aeruginosa, P.aeruginosa SR24 infection.
The nature of data set [3]: in vivo. The conditions noted are these: mouse.

For the compound `CO/N=C(\C(=O)NC1C(=O)N2C(C(=O)[O-])=C(Cn3cc[n+]4ncccc34)CSC12)c1nsc(N)n1` (centres unmarked) [Control compound (1)], the ED50 (as a rule, the dose at which the effect has come halfway, by size or by number of responders) in the data set on P.vulgaris GN-329 was found to be 0.81 mg/kg; in the data set on S.aureus Smith it was 0.76 mg/kg; with P.aeruginosa E-2 it was 4.73 mg/kg; in the data set with S.pneumoniae Type I, 0.69 mg/kg; in the data set on P.aeruginosa SR24, 1.52 mg/kg. The half-life (commonly how long it takes for the measured level to halve) in the data set “in vivo [1]” is 76.8 min; in the data set “in vivo [3]”, 23.4 min. Moreover, the MIC – broadly, the smallest concentration in the dilution series that meets the test's criterion for growth inhibition – stood at 0.013 µg/mL (≈ 0.0252 µM) in the data set with S. pyogenes C-203; 0.1 µg/mL (≈ 0.194 µM) with S. mitis ATCC9811; 0.1 µg/mL (≈ 0.194 µM) in the data set on S. agalactiae ATCC13813; 0.05 µg/mL (≈ 0.097 µM) against S. pneumoniae Type I; 0.1 µg/mL (≈ 0.194 µM) in the data set with P. mirabilis PR-4; 0.1 µg/mL (≈ 0.194 µM) in the data set with P. vulgaris CN-329. Also, the MIC in the data set with K. pneumoniae SR1 is 0.05 µg/mL (≈ 0.097 µM); in data set [2], 0.78 µg/mL (≈ 1.51 µM).
`N#CNC(=O)NCc1cc(-c2cc[n+](CC3=C(C(=O)[O-])N4C(=O)C(NC(=O)/C(=N\OCF)c5nsc(N)n5)C4SC3)cc2)c[nH]1` (centres unmarked) [I-1′]: the MIC in the data set on S. pyogenes C-203 was 0.006 µg/mL (≈ 0.00915 µM); in the data set on S. mitis ATCC9811 it was 0.05 µg/mL (≈ 0.0763 µM); against S. agalactiae ATCC13813 it was 0.025 µg/mL (≈ 0.0381 µM); with S. pneumoniae Type I, 0.013 µg/mL (≈ 0.0198 µM); against P. mirabilis PR-4 it was 0.013 µg/mL (≈ 0.0198 µM); in the data set with P. vulgaris CN-329, 0.013 µg/mL (≈ 0.0198 µM). Further, the values for the MIC (in the data set on K. pneumoniae SR1; in [2]) were 0.006 µg/mL (≈ 0.00915 µM) and 0.2 µg/mL (≈ 0.305 µM), respectively.
